Laboratory results: patent publication US20110256241A1, “METHODS AND COMPOSITIONS FOR THE TREATMENT OF CANCER” (TRASLATIONAL CANCER DRUGS PHARMA, S.L., priority 2008, published 2011)

Assays:
[1] = tested on: primary cultures of tumours of patients with NSCLC; assay: Primary cultures of NSCLC tumours, crystal violet quantification; assay type: cell-based, human; settings: primary NSCLC tumour cultures, 0-20 μM, 10 days
Description: Resected tissues from NSCLC patients were dissociated (Cell dissociation sieve-tissued grinder Kit CD1, SIGMA), and the obtained cells were seeded in 24 well plates (BD, Falcon, Bioscience, San Jose, Calif., USA). […] The final persistent population in each well was quantified by the method of Cristal Violet as previously described (Rodríguez-González, A. et al., Oncogene, 22:8803-8812). […]

[2] = tested on: H460 xenografts; assay: NSCLC xenografts, in vivo tumor growth inhibition
Description: Indicated cells were resuspended in DMEM just before inoculation (10^6 cells/0.1 ml), and injected subcutaneously in nu/nu immunosuppressed mice. Mice were kept under standard laboratory conditions according to the guidelines of the Spanish Government. When tumours reached a mean volume of 0.1 cm^3, mice were randomized to control and treated groups. Treatments with the antitumoral agents (and vehicle for control mice) were performed i.p. with following the indicated schedules. Tumors were monitored three times a week by measuring the major (D) and minor (d) diameters, and tumour volume was calculated by V=(D*d^2)/2. Statistical analysis of significant changes in tumour growth was calculated using SPSS software v. 13.0.

[3] = tested on: H460 MN58R cells; assay: Cell proliferation assay (MTT); assay type: cell-based, human
Description: (§1) Cell lines resistant to MN58b and RSM-932A (identified as MN58R and RSM-932A-R, respectively) were generated by prolonged continuous exposure to increasing concentrations of each drug. A parallel control (H460 stock) of the cell line in the absence of the compounds was kept in culture for the same time.
(§2) Cells were seeded on 96-well plates (BD, Falcon, Bioscience, San Jose, Calif., USA) at a density of 6000 cells/well, and incubated for 24 h under standard conditions. Then, cells were treated with different concentrations of the ChoK inhibitors (quadruplicates of each concentration) and maintained for 72 hours. […] Absorbance is read at 595 nm in a VersaMax Microplate Reader (Molecular Devices, Sunnyvale, Calif., USA). For sensitization with acid ceramidase inhibitor, cells were pre-treated […] with the correspondent IC50 for NOE before treatment with ChoK inhibitors. NOE (N-Oleoyl ethanolamine) was obtained from Calbiochem (La Jolla, Calif., USA).
(§3) To further study the mechanism underlying resistance to ChoK inhibition, as well as the implication of acid ceramidase in this effect, we used the human NSCLC-derived H460 cell line for a set of in vitro experiments. Maintaining this cell line in culture for 9 months with slightly increasing doses cycles of MN58b and a second-generation ChoKα inhibitor, RSM-932A, we established new cell lines with acquired resistance to these ChoKα inhibitors. A control cell line (H460 stock) was also established maintaining H460 in culture for the same time without treatment. Thus, established cells resistant to MN58b (H460 MN58R) and resistant to RSM-932A (H460 RSM-932A-R) were not affected at concentrations where normal H460 cells or control H460stock cells were dramatically affected. […] Furthermore, we found a strong cross-resistance between both ChoK inhibitors as it could be expected due to the similar mechanisms of action of these two antitumoral drugs (Table 9).

[4] = tested on: H460stock cells; assay: Cell proliferation assay (MTT); assay type: cell-based, human
Description: as §1, §2, §3

[5] = tested on: H460 RSM-932AR cells; assay: Cell proliferation assay (MTT); assay type: cell-based, human
Description: as §1, §2, §3

[6] = tested on: H460 cells; assay: Cell proliferation assay (MTT); assay type: cell-based, human
Description: All cell lines used in this study were maintained under standard conditions of temperature (37° C.), humidity (95%), and carbon dioxide (5%). Human primary bronchial epithelial cells, NHBE (BEC) (Cambrex, CC-2541) were grown in BEGM (Bronchial Epithelial cell growth media) BulletKit (Cambrex, CC-3170). Human primary mammary epithelial cells, HMEC (Clonetics, CC-2551) were grown in MEBM medium supplemented with a bullet kit (Clonetics, CC-3150). Epithelial non-small lung cancer cells H460 and H1299, and small cell lung cancer cell lines H510 and H82 were maintained in RPMI supplemented with 10% Fetal Bovine Serum (FBS) (Life Technologies, Grand Island, N.Y.).
as §2
Thus, disruption in the levels of acid ceramidase may allow ChoK inhibitors to have a better effect in these cells. To verify this hypothesis, we used the previously characterized acid ceramidase inhibitor, N-Oleoylethanolamine (NOE) (Grijalvo S., Chem Phys Lipids. 2006; 144:69-84), to investigate if the inhibition of acid ceramidase sensitizes tumour cell lines to ChoK inhibitors. To that end, H460 cells were pre-treated with NOE for three hours to inhibit acid ceramidase.
H460 cells were pre-treated with these compounds for three hours to inhibit ceramidases. […] Furthermore, the combined use of ChoK inhibitors and acid ceramidase inhibitors provides a further stronger anticancer activity.

N.N.[Cl][Pt][Cl] [Cisplatin, cisplatin, reference compound]
RESISTANT (% of samples) [1]: 50% | RESISTANT (number of samples) [1]: 31 | SENSITIVES (% of samples) [1]: 50% | SENSITIVES (number of samples) [1]: 31 | Statistical significance (p), tumour growth ([2]; FIG. 7A, single agents): 0.3 | Statistical significance (p), tumour growth ([2]; FIG. 7B, combination given sequentially): 0.441 | IC 50 [3]: 2 µg/mL | IC 50 [4]: 4.5 µg/mL | IC 50 [5]: 1.5 µg/mL | IC 50 [6]: 5 µg/mL
